Earlier results on two compounds are cited in patent publication US9827328B2, “Combination therapy for treatment of cancer” (UNIVERSITY OF SOUTH ALABAMA, priority 2011, dated 2017).

For data set [1], the system named is patients with metastatic breast cancer.
The test system of data set [2] is patients with advanced or metastatic breast cancer. The conditions noted are these: weekly nab-paclitaxel v every-three week Taxotere.

Where two headings read alike, the source gives them in different places.

For the compound `CC(=O)O[C@H]1C(=O)[C@@]2(C)[C@H]([C@H](OC(=O)c3ccccc3)[C@]3(O)C[C@H](OC(=O)[C@H](O)[C@@H](NC(=O)c4ccccc4)c4ccccc4)C(C)=C1C3(C)C)[C@]1(OC(C)=O)CO[C@@H]1C[C@@H]2O` [Taxol, paclitaxel], in data set [1] (all patients), the “incidence of hyperglycemia reported as adverse effect” value is reported as 7%. Moreover, the median survival in data set [1] (all patients) is listed as 55.7 weeks; in data set [1] (second-line or greater therapy), 46.7 weeks. The “median time to tumor progression (TTP)” value in data set [1] (all patients) is recorded as 16.9 weeks. Further, the “overall response rate (ORR)” value in data set [1] (all patients, ITT) is 19%. The “number of patients with persistent grade 3 sensory neuropathy” value in data set [1] (by day 28 after first occurrence) is listed as 4. Besides, the “episodes of motor neuropathy or grade 4 sensory neuropathy” value in data set [1] (in vivo) was “No episodes”. Besides, the “incidence of treatment-related grade 4 neutropenia” value in data set [1] (in vivo) is listed as 22%. Moreover, the mean neutrophil nadir in data set [1] (in vivo) was 1.31e+09 L⁻¹. Further, the “treatment-related grade 3 sensory neuropathy” value in data set [1] (in vivo) is 2%. In data set [1] (nab-paclitaxel without premedication, Taxol with standard premedication), the “severe (grade 3 or 4) treatment-related hypersensitivity reactions” value is on record as “grade 3 hypersensitivity reactions occurred”. For the same compound, the tumor response rate in data set [1] (patients aged younger than 65 years) and in data set [1] (patients with visceral dominant lesions) was 19% throughout. In addition, the ORR in data set [1] (patients who received first-line therapy) is 27%; in data set [1] (patients with nonvisceral dominant lesions) it was 19%; in data set [1] (patients ≧65 years old) it was 19%; in data set [1] (prior anthracycline therapy, adjuvant/metastatic setting), 18%; in data set [1] (prior anthracycline therapy, metastatic setting only) it was 14%; in data set [1] (second-line or greater therapy) it was 13%.
On to `CC(=O)O[C@@]12CO[C@@H]1C[C@H](O)[C@@]1(C)C(=O)[C@H](O)C3=C(C)[C@@H](OC(=O)[C@H](O)[C@@H](NC(=O)OC(C)(C)C)c4ccccc4)C[C@@](O)([C@@H](OC(=O)c4ccccc4)[C@H]21)C3(C)C` [Taxotere, docetaxel], for which the “rate of grade 4 neutropenia” value in data set [2] was 75%.
